The values that follow are results of earlier work, collected in patent publication US20090148519A1, “PULSED-RELEASE PREPARATION HAVING IMPROVED DISINTEGRATION PROPERTIES IN VIVO” (priority 2005, published 2009).

What is called half-life is how long it takes for the measured level to halve.

On to `COCCCOc1ccnc(C[S+]([O-])c2nc3ccccc3[nH]2)c1C` (centres unmarked) [rabeprazole], for which the “half-life at pH 7” value is 30 minutes. Turning to `COc1ccnc(C[S+]([O-])c2nc3cc(OC(F)F)ccc3[nH]2)c1OC` (centres unmarked) [pantoprazole], the “half-life at pH 7” value is given as 39 hours.
